According to patent EP0591378B1, “METHOD OF PREVENTING AND TREATING CHEMOTHERAPY-INDUCED ALOPECIA” (Hairbiotech, Inc., priority 1991, dated 1993):
Where “and” joins values, the source holds several entries; their conditions need not be identical. Identical values can stand only once. Entries after “also recorded” stand apart in the source; their conditions may differ.

Legend:
[1] = test system: Cytoxan/Adriamycin-Induced Alopecia; assay: Alopecia induced by Cytoxan/Adriamycin combination in young rats; format: in vivo, Sprague Dawley rats
Experimental: Eight 4-day old Sprague Dawley rats were randomized in two groups of 4 rats each. […] Group II received buffer injections and served as controls. One day after stopping EGF or buffer injections all rats received Cytoxan 25 mg/kg i.p. x 1 day and Adriamycin 2.5 mg/kg i.p. x 3 days. In Group II, all rats had 3+ alopecia over head and neck area. In contrast, in Group I one rat had mild alopecia, one rat minimal alopecia, and two rats no detectable alopecia over head and neck. (FIGURE 5).
(§1) Topical Application of 1,25-dihydroxyvitamin D3: • 1,25-Dihydroxyvitamin D3 was dissolved in absolute ethanol and applied topically with an applicator. Control animals were similarly treated with the same amount of ethanol. Animals were then kept individually separated for a period of three hours following which the treated area was carefully washed with soap and water and dried. Treatment was given daily beginning on day 5 after birth and ending on day 10.
Chemotherapy: • All chemotherapies were given I.P. and started at 11 days of age. CTX, 35 mg/kg, was given for one day only. VP-16, 1.5 mg/kg, was given for three days. For CTX and ADM combination, CTX, 25 mg/kg was given for one day and ADM, 2.5 mg/kg, for three days. At these doses neither CTX nor ADM alone will produce alopecia. Alopecia was recorded on the tenth day from beginning chemotherapy.
A total of 4 experiments were carried out. […]

VP-16-induced alopecia = assay: VP-16 (Etoposide)-induced alopecia in young rats; format: in vivo
Experimental: Twelve 7 day old rats were randomized in two groups. Group I was treated daily with buffer 0.1 ml s.c. for four days. The second Group was treated daily with Vitamin D3 50µg s.c. over head for four days. After stopping the buffer or Vitamin D3 treatment, all rats received 1.5 mg/kg i.p. of VP-16 (Etoposide) daily for three days.
as §1
Chemotherapy: • All chemotherapies were given I.P. and started at 11 days of age. CTX, 35 mg/kg, was given for one day only. VP-16, 1.5 mg/kg, was given for three days. For CTX and ADM combination, CTX, 25 mg/kg was given for one day and ADM, 2.5 mg/kg, for three days. […] Alopecia was recorded on the tenth day from beginning chemotherapy.
A total of 4 experiments were carried out. In the first experiment, protection from Cytoxan-induced alopecia was examined. The experimental group was pretreated with 0.2 µg of 1,25-dihydroxyvitamin D, in 0.15 ml of absolute ethanol applied topically over the head and neck and the control group received 0.15 ml of alcohol. […] The second experiment was carried out under similar conditions to examine protection from VP-16-induced alopecia. […] The third experiment was designed to examine protection from alopecia induced by Cytoxan-Adriamycin combination. There were 11 rats in each group. […] In the fourth experiment, protection from VP-16-induced alopecia was similarly examined except that the dose of 1,25-dihydroxyvitamin D3 was reduced to 0.1 µg in 0.1 ml absolute ethanol applied topically over the head area only.
RO 23-7553 (1,25 dihydroxy-16-ene-23-yne-cholecalciferol) was dissolved in absolute ethanol and applied topically with an applicator. Control animals were similarly treated with the same amount of ethanol. Animals were then kept individually separated for a period of three hours following which the treated area was carefully washed with soap and water and dried. Treatment was given daily beginning on day 9 after birth and ending on day 14.
On day 15 all animals received VP-16, 1.5 mg/kg i.p., for three days. Alopecia was recorded on day 25.
Thirteen rats were randomized in two groups. Experimental group, 7 rats; control group, 6 rats. The experimental group was pretreated with 1 µg of RO 23-7553 in 0.2 ml absolute ethanol applied topically over the neck and back and the control group received 0.2 ml of absolute ethanol.

Cytoxan-induced alopecia = Cytoxan-induced alopecia in young rats; format: in vivo
hair growth [2] = assay: Stimulation of hair regrowth on the shaven back of rats; format: in vivo, Sprague Dawley rats
Experimental: The backs of nineteen 25 day old Sprague Dawley rats were shaven and randomized in two groups.
Group I (control 10 rats) received 0.1 ml of ethanol applied topically once daily to the shaven area for 14 days.
Group II (Calcitriol 9 rats) received 50 ng of 1,25-dihydroxyvitamin D3 in 0.1 ml of ethanol applied topically once daily to the shaven area for 14 days.
On day 15 stimulation of hair regrowth was assessed by reshaving an area 6 cm x 6 cm in diameter. The hair was collected and weighed. The difference between two groups was highly statistically significant. P. value 0.003 (see Table III and Figure 11).

hair growth [3] = assay: as above; format: in vivo, Sprague Dawley rats; conditions: observation in treated rats during the chemotherapy-induced alopecia studies
[4] = test system: EGF receptors on breast cancer cells; conditions: cited from earlier work
[5] = test system: EGF receptors on a cell line established from rat calvaria; conditions: cited from earlier work
ARA-C-induced alopecia = ARA-C-induced alopecia in young rats; format: in vivo, Sprague Dawley rats; conditions: Alopecic drug Cytarabine (ARA-C) 50 mg/kg i.p. daily for 7 days, 50 µg daily i.p. or s.c. for 4 days prior to chemotherapy, 1 experiment, 8 animals, uniformly observed in all treated animals
Experimental: Sprague Dawley rats were purchased from Charles River Laboratories, Wilmington, MA. Cytosar-U (ARA-C) was from the Upjohn Company, Kalamazoo, MI. Receptor grade EGF from mouse submaxillary glands, human recombinant EGF, dimethyl sulfoxide (DMSO) and Vitamin D3 were purchased from Sigma Chemical Co., St. Louis, MO. aFGF was purchased from AMGEN Corp., Thousand Oaks, CA.
All rats from each experiment were treated with ARA-C 50 mg/kg intraperitoneally (i.p.) daily for 7 days. For subcutaneous (s.c.) injections, EGF and FGF were prepared in PBS 1% BSA. Alopecia was always recorded on day 12 of experiment, and scored as previously described (Hussein et al, Science, 249:1564-1566, 1990; Jimenez et al, FASEB J., 1991).
For topical treatment, murine EGF was prepared as follows: One vial of EGF (100 µg) was dissolved in 0.2 ml of PBS 1% BSA and 0.12 ml of this solution was added to 0.48 of DMSO. Three hours prior to ARA-C injection, 0.1 ml of the EGF-DMSO mixture was applied to each rat over a 1 cm^2 area between the shoulders using a rubber tip applicator. Rats were then kept individually separated for a period of three hours, following which the treated area was carefully washed with soap and water and dried. Treatment was continued for 7 days. […]
Fourteen 7-day old rats were randomized in two groups. […] Alopecia was recorded on day 12 of experiment. […]

## C=C1/C(=C\C=C2/CCC[C@]3(C)[C@@H]([C@H](C)CCCC(C)(C)O)CC[C@@H]23)C[C@@H](O)C[C@@H]1O [1,25-dihydroxyvitamin D3]
[1]; pretreatment 0.2 µg in 0.15 ml absolute ethanol topically over head and neck, CTX 25 mg/kg one day and ADM 2.5 mg/kg three days I.P., 11 rats, all rats
  protection from alopecia induced by Cytoxan-Adriamycin combination: protected
VP-16-induced alopecia; applied topically 0.5 µg daily in 50% ethanol or DMSO
  protection from VP-16-induced alopecia: protected
VP-16-induced alopecia; pretreatment 0.1 µg in 0.1 ml absolute ethanol topically over the head area only, VP-16 1.5 mg/kg I.P. for three days, all rats
  protection from VP-16-induced alopecia: protected primarily at the site of 1,25-dihydroxyvitamin D3 application; also recorded: less generalized and was more limited to the site of application
VP-16-induced alopecia; pretreatment 0.2 µg in 0.15 ml absolute ethanol topically over head and neck, VP-16 1.5 mg/kg I.P. for three days, recorded on tenth day, all rats
  protection from VP-16-induced alopecia: protected; also recorded: not limited to the site of application but involved the entire body
Cytoxan-induced alopecia; pretreatment 0.2 µg in 0.15 ml absolute ethanol topically over head and neck, day 5 to day 10 after birth, CTX 35 mg/kg I.P. one day, recorded on tenth day, all animals
  protection from Cytoxan-induced alopecia: protected
Hair growth [2]; 50 ng in 0.1 ml ethanol topically once daily for 14 days, 9 rats, day 15, P. value 0.003 versus control (113 ± 8)
  Hair Weight, Mean S.E.M.: 164 ± 13 Mg.
Hair growth [2]; 50 ng in 0.1 ml ethanol topically once daily to the shaven area for 14 days, reshaved area 6 cm x 6 cm on day 15, listed as Calcitriol
  Hair Weight (individual rats): 135 Mg. and 202 Mg. and 143 Mg. and 150 Mg. and 253 Mg. and 130 Mg. and 177 Mg. and 140 Mg. and 147 Mg.
Hair growth [3]
  coat of hair and hair length in the treated area: better coat of hair and longer hair in the treated area
[4]
  effect on EGF receptors on breast cancer cells: increase
[5]
  effect on EGF receptors on a cell line established from rat calvaria: increase

## C=C1/C(=C\C=C2/CCC[C@]3(C)C([C@H](C)CC#CC(C)(C)O)=CC[C@@H]23)C[C@@H](O)C[C@@H]1O [RO 23-7553, 1,25 dihydroxy-16-ene-23-yne-cholecalciferol]
VP-16-induced alopecia; pretreatment 1 µg in 0.2 ml absolute ethanol topically over neck and back, day 9 to day 14 after birth, VP-16 1.5 mg/kg i.p. three days from day 15, recorded on day 25, 7 rats, all animals
  protection from VP-16-induced alopecia: protected

## C=C1CC[C@H](O)C/C1=C/C=C1\CCC[C@]2(C)[C@@H]([C@H](C)CCCC(C)C)CC[C@@H]12 [Vitamin D3]
ARA-C-induced alopecia
  Protection from alopecia: excellent protection and Yes*
[1]; Adriamycin 2.5 mg/kg i.p. daily for 3 days plus Cytoxan 25 mg/kg single injection, 50 µg daily i.p. or s.c. for 4 days prior to chemotherapy, 6 experiments, 77 animals, uniformly observed in all treated animals
  Protection from alopecia: excellent protection and Yes*
VP-16-induced alopecia; 50µg s.c. over head daily for four days, then VP-16 1.5 mg/kg i.p. daily for three days, 7 day old rats
  Protection from alopecia: protected
VP-16-induced alopecia; Alopecic drug Etoposide (VP-16) 1.5 mg/kg i.p. daily for 3 days, 50 µg daily i.p. or s.c. for 4 days prior to chemotherapy, 2 experiments, 22 animals, uniformly observed in all treated animals
  Protection from alopecia: excellent protection and Yes*
Cytoxan-induced alopecia; Alopecic drug Cytoxan (CTX) 32.5 mg/kg single injection, 50 µg daily i.p. or s.c. for 4 days prior to chemotherapy, 7 experiments, 89 animals, uniformly observed in all treated animals, 32.5 mg/kg
  Protection from alopecia: excellent protection and Yes*
